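Where inhibition never reached the appropriate level, the endpoint shown equals the highest concentration tested. Otherwise, values were interpolated linearly from a five-concentration, 48-hour dose response in 96-well plates. At the GI50, growth is halved. TGI marks complete inhibition of growth.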
Key:
Test in all cases: growth of human tumour cells (NCI), 48 h
SF-268 CNS = tested on: SF-268 CNS
CCRF-CEM leukemia = tested on: CCRF-CEM leukemia
EKVX NSCLC = tested on: EKVX NSCLC
NCI/ADR-RES ovarian = tested on: NCI/ADR-RES ovarian
MCF7 breast = tested on: MCF7 breast
RPMI-8226 leukemia = tested on: RPMI-8226 leukemia
SNB-19 CNS = tested on: SNB-19 CNS
HOP-92 NSCLC = tested on: HOP-92 NSCLC
SF-295 CNS = tested on: SF-295 CNS
NCI-H460 lung = tested on: NCI-H460 lung
SK-MEL-5 melanoma = tested on: SK-MEL-5 melanoma
HOP-62 NSCLC = tested on: HOP-62 NSCLC
CAKI-1 renal = tested on: CAKI-1 renal
HCC-2998 colon = tested on: HCC-2998 colon
M14 melanoma = tested on: M14 melanoma
OVCAR-3 ovarian = tested on: OVCAR-3 ovarian
A498 renal = tested on: A498 renal
NCI-H23 lung = tested on: NCI-H23 lung
SK-MEL-28 melanoma = tested on: SK-MEL-28 melanoma
MALME-3M melanoma = tested on: MALME-3M melanoma
HL-60(TB) leukemia = tested on: HL-60(TB) leukemia
786-0 renal = tested on: 786-0 renal
IGROV1 ovarian = tested on: IGROV1 ovarian
COLO 205 colon = tested on: COLO 205 colon
BT-549 breast = tested on: BT-549 breast
PC-3 prostate = tested on: PC-3 prostate
U251 CNS = tested on: U251 CNS
LOX IMVI melanoma = tested on: LOX IMVI melanoma
OVCAR-8 ovarian = tested on: OVCAR-8 ovarian
MDA-MB-435 = tested on: MDA-MB-435
MDA-MB-468 breast = tested on: MDA-MB-468 breast
ACHN renal = tested on: ACHN renal
K-562 leukemia = tested on: K-562 leukemia
HT29 colon = tested on: HT29 colon
KM12 colon = tested on: KM12 colon
NCI-H522 lung = tested on: NCI-H522 lung
DU-145 prostate = tested on: DU-145 prostate
SR leukemia = tested on: SR leukemia
OVCAR-5 ovarian = tested on: OVCAR-5 ovarian
HS 578T breast = tested on: HS 578T breast
UACC-257 melanoma = tested on: UACC-257 melanoma
MOLT-4 leukemia = tested on: MOLT-4 leukemia
UACC-62 melanoma = tested on: UACC-62 melanoma
SK-OV-3 ovarian = tested on: SK-OV-3 ovarian
T-47D breast = tested on: T-47D breast
OVCAR-4 ovarian = tested on: OVCAR-4 ovarian
SN12C renal = tested on: SN12C renal
SW-620 colon = tested on: SW-620 colon
TK-10 renal = tested on: TK-10 renal
RXF 393 renal = tested on: RXF 393 renal
HCT-116 colon = tested on: HCT-116 colon
A549 NSCLC = tested on: A549 NSCLC
HCT-15 colon = tested on: HCT-15 colon
NCI-H226 lung = tested on: NCI-H226 lung
SF-539 CNS = tested on: SF-539 CNS

Cc1ccc(Cl)cc1NC(=O)Nc1nc2ccc([N+](=O)[O-])cc2s1
GI50 (SF-268 CNS): 3.48 µM
TGI (SF-268 CNS): 13.8 µM
GI50 (CCRF-CEM leukemia): 3.02 µM
TGI (CCRF-CEM leukemia): 12.5 µM
GI50 (EKVX NSCLC): 2.79 µM
TGI (EKVX NSCLC): 10.1 µM
GI50 (NCI/ADR-RES ovarian): 2.54 µM
TGI (NCI/ADR-RES ovarian): 9.04 µM
GI50 (MCF7 breast): 2.71 µM
TGI (MCF7 breast): 8.92 µM
GI50 (RPMI-8226 leukemia): 1.85 µM
TGI (RPMI-8226 leukemia): 5.58 µM
GI50 (SNB-19 CNS): 3.43 µM
TGI (SNB-19 CNS): 12.7 µM
GI50 (HOP-92 NSCLC): 2.29 µM
TGI (HOP-92 NSCLC): 6.42 µM
GI50 (SF-295 CNS): 2.24 µM
TGI (SF-295 CNS): 6.59 µM
GI50 (NCI-H460 lung): 2.69 µM
TGI (NCI-H460 lung): 10.2 µM
GI50 (SK-MEL-5 melanoma): 1.84 µM
TGI (SK-MEL-5 melanoma): 3.6 µM
GI50 (HOP-62 NSCLC): 3.47 µM
TGI (HOP-62 NSCLC): 11.2 µM
GI50 (CAKI-1 renal): 3.18 µM
TGI (CAKI-1 renal): 11.7 µM
GI50 (HCC-2998 colon): 3.43 µM
TGI (HCC-2998 colon): 10.9 µM
GI50 (M14 melanoma): 2.87 µM
TGI (M14 melanoma): 10.8 µM
GI50 (OVCAR-3 ovarian): 3.25 µM
TGI (OVCAR-3 ovarian): 11.6 µM
GI50 (A498 renal): 2.38 µM
TGI (A498 renal): 6.29 µM
GI50 (NCI-H23 lung): 2.27 µM
TGI (NCI-H23 lung): 6.58 µM
GI50 (SK-MEL-28 melanoma): 3.42 µM
TGI (SK-MEL-28 melanoma): 12.3 µM
GI50 (MALME-3M melanoma): 2.17 µM
TGI (MALME-3M melanoma): 6.39 µM
GI50 (HL-60(TB) leukemia): 1.88 µM
TGI (HL-60(TB) leukemia): 4.7 µM
GI50 (786-0 renal): 2.73 µM
TGI (786-0 renal): 10 µM
GI50 (IGROV1 ovarian): 3.92 µM
TGI (IGROV1 ovarian): 14.3 µM
GI50 (COLO 205 colon): 1.85 µM
TGI (COLO 205 colon): 3.58 µM
GI50 (BT-549 breast): 2.35 µM
TGI (BT-549 breast): 7.92 µM
GI50 (PC-3 prostate): 2.97 µM
TGI (PC-3 prostate): 11.3 µM
GI50 (U251 CNS): 3.06 µM
TGI (U251 CNS): 10.7 µM
GI50 (LOX IMVI melanoma): 3.28 µM
TGI (LOX IMVI melanoma): 12.1 µM
GI50 (OVCAR-8 ovarian): 3.07 µM
TGI (OVCAR-8 ovarian): 11.7 µM
GI50 (MDA-MB-435): 3.33 µM
TGI (MDA-MB-435): 12.2 µM
GI50 (MDA-MB-468 breast): 2.24 µM
TGI (MDA-MB-468 breast): 6.6 µM
GI50 (ACHN renal): 3.09 µM
TGI (ACHN renal): 10.6 µM
GI50 (K-562 leukemia): 2.5 µM
TGI (K-562 leukemia): 10.2 µM
GI50 (HT29 colon): 3.28 µM
TGI (HT29 colon): 10.5 µM
GI50 (KM12 colon): 3.1 µM
TGI (KM12 colon): 10.3 µM
GI50 (NCI-H522 lung): 2.08 µM
TGI (NCI-H522 lung): 7.17 µM
GI50 (DU-145 prostate): 3.68 µM
TGI (DU-145 prostate): 14.1 µM
GI50 (SR leukemia): 2.05 µM
TGI (SR leukemia): 5.63 µM
GI50 (OVCAR-5 ovarian): 3.33 µM
TGI (OVCAR-5 ovarian): 11.9 µM
GI50 (HS 578T breast): 2.75 µM
TGI (HS 578T breast): 9.4 µM
GI50 (UACC-257 melanoma): 2.21 µM
TGI (UACC-257 melanoma): 6.63 µM
GI50 (MOLT-4 leukemia): 2.3 µM
TGI (MOLT-4 leukemia): 6.76 µM
GI50 (UACC-62 melanoma): 2.86 µM
TGI (UACC-62 melanoma): 11.5 µM
GI50 (SK-OV-3 ovarian): 2.19 µM
TGI (SK-OV-3 ovarian): 6.52 µM
GI50 (T-47D breast): 2.31 µM
TGI (T-47D breast): 7.87 µM
GI50 (OVCAR-4 ovarian): 3.36 µM
TGI (OVCAR-4 ovarian): 14.2 µM
GI50 (SN12C renal): 2.86 µM
TGI (SN12C renal): 9.7 µM
GI50 (SW-620 colon): 3.06 µM
TGI (SW-620 colon): 12.4 µM
GI50 (TK-10 renal): 3.49 µM
TGI (TK-10 renal): 13 µM
GI50 (RXF 393 renal): 2.54 µM
TGI (RXF 393 renal): 9.73 µM
GI50 (HCT-116 colon): 2.81 µM
TGI (HCT-116 colon): 11 µM
GI50 (A549 NSCLC): 2.94 µM
TGI (A549 NSCLC): 10.1 µM
GI50 (HCT-15 colon): 2.93 µM
TGI (HCT-15 colon): 11.3 µM
GI50 (NCI-H226 lung): 3.34 µM
TGI (NCI-H226 lung): 12 µM
GI50 (SF-539 CNS): 2.6 µM
TGI (SF-539 CNS): 6.9 µM

— PubChem BioAssay (NCI)
